Measured values as given in patent US20260184681A1, “PIPERIDINE DERIVATIVE, SALT OF SAME, AND PHARMACEUTICAL COMPOSITION CONTAINING SAME AS ACTIVE INGREDIENT” (PHARMCADD CO., LTD., priority 2022, published 2026).
Structures can show the parent of a compound that is named as a salt.

Test system: MV4-11, an acute myeloid leukemia cell line
Experiment: WST-8 cell viability assay (inhibition of cancer cell proliferation) in MV4-11
Assay type: cell-based
Details: Homo sapiens, MV4-11 cells, 72 hours, WST-8 assay; for inhibition at 10 µM: compound at 10 μM; for IC50: final concentration 0.02 to 100 μM
Procedure: In order to confirm the inhibition of cancer cell proliferation of the compound, the WST-8 assay (Cyto X cell viability assay kit, LPS solution, Daejeon, Korea) was performed according to the manufacturer's protocol. MV4-11, an acute myeloid leukemia cell line, was inoculated into a 96-well plate at 3×10^3 per well. The cells were cultured for 24 hours, and treated with the compound at a concentration of 10 μM. After 72 hours, the culture medium was discarded and a chromatographic solution was added. Following a 1-hour incubation at 37° C., color development was observed, and the absorbance was measured at 480 nm using a Versamax microplate reader (Molecular Devices, CA, USA). In addition, in order to confirm the IC50 value of the compound in MV4-11, the cells were treated with the compound with the final concentration of 0.02 to 100 μM in the same manner as the experiment above.

Row | IC50 [µM] | Structure (SMILES) | inhibition at 10 µM [%]
1 | 6.74 | CN(C)S(=O)(=O)N1CCCC(Nc2cc(NC(=O)c3ccc(C(C)(C)C)cc3)ccc2C(N)=O)C1 (stereo not shown) [Example A-3, 4-(tert-butyl)-N-(4-carbamoyl-3-((1-(N,N-dimethylsulfamoyl)piperidin-3-yl)amino)phenyl)benzamide] | 87.6
2 | – | COc1cc([N+](=O)[O-])ccc1NC(=O)N1CCCC(Nc2cc(NC(=O)c3ccc(C(C)(C)C)cc3)ccc2C(N)=O)C1 (stereo not shown) [Example B-33, 3-((5-(4-(tert-butyl)benzamido)-2-carbamoylphenyl)amino)-N-(2-methoxy-4-nitrophenyl)piperidine-1-carboxamide] | 80.5
3 | 4.59 | COC(=O)c1ccc(NC(=O)c2ccc(C(C)(C)C)cc2)cc1NC1CCCN(C)C1 [Example D-7, methyl 4-(4-(tert-butyl)benzamido)-2-((1-methylpiperidin-3-yl)amino)benzoate] | 100
4 | 9.6 | CC(C)(C)c1ccc(C(=O)Nc2ccc(C(=O)O)c(NC3CCCN(Cc4ccccc4)C3)c2)cc1 (stereo not shown) [Example E-2, 2-((1-benzylpiperidin-3-yl)amino)-4-(4-(tert-butyl)benzamido)benzoic acid] | 71.1
5 | 1.7 | CC(C)(C)c1ccc(C(=O)Nc2ccc(C(N)=O)c(NC3CCNCC3)c2)cc1 [Example D-11, 4-(tert-butyl)-N-(4-carbamoyl-3-(piperidin-4-ylamino)phenyl)benzamide trifluoroacetate] | 70
6 | 15.3 | CCCCNC(=O)N1CCCC(Nc2cc(NC(=O)c3ccc(C(C)(C)C)cc3)ccc2C(=O)OC)C1 (stereo not shown) [Example B-4, methyl 4-(4-(tert-butyl)benzamido)-2-((1-(butylcarbamoyl)piperidin-3-yl)amino)benzoate] | 84.6
7 | 4.75 | CC(C)(C)c1ccc(C(=O)Nc2ccc(C(N)=O)c(NC3CCCN(C(=O)NCc4cccc(F)c4)C3)c2)cc1 (stereo not shown) [Example B-15, 3-((5-(4-(tert-butyl)benzamido)-2-carbamoylphenyl)amino)-N-(3-fluorobenzyl)piperidine-1-carboxamide] | 100
8 | 2.4 | CC(C)(C)c1ccc(C(=O)Nc2ccc(C(N)=O)c(NC3CCCN(C(=O)NC4CCCCC4)C3)c2)cc1 (stereo not shown) [Example B-9, 3-((5-(4-(tert-butyl)benzamido)-2-carbamoylphenyl)amino)-N-cyclohexylpiperidine-1-carboxamide] | 94.6
9 | 2.2 | COC(=O)c1ccc(NC(=O)c2ccc(C(C)(C)C)cc2)cc1NC1CCCN(Cc2ccccc2)C1 (stereo not shown) [Example E-1, methyl 2-((1-benzylpiperidin-3-yl)amino)-4-(4-(tert-butyl)benzamido)benzoate] | 70.1
10 | 5.32 | CCc1cccc(CC)c1NC(=O)N1CCCC(Nc2cc(NC(=O)c3ccc(C(C)(C)C)cc3)ccc2C(N)=O)C1 (stereo not shown) [Example B-18, 3-((5-(4-(tert-butyl)benzamido)-2-carbamoylphenyl)amino)-N-(2,6-diethylphenyl)piperidine-1-carboxamide] | 93.7
11 | 4.68 | CC(C)(C)c1ccc(C(=O)Nc2ccc(C(N)=O)c(NC3CCCN(C(=O)Nc4ccc(I)cc4)C3)c2)cc1 (stereo not shown) [Example B-24, 3-((5-(4-(tert-butyl)benzamido)-2-carbamoylphenyl)amino)-N-(4-iodophenyl)piperidine-1-carboxamide] | 94
12 | 3.8 | CC(C)(C)c1ccc(C(=O)Nc2ccc(C(N)=O)c(NC3CCCN(C(=O)Nc4ccccc4)C3)c2)cc1 (stereo not shown) [Example B-12, 3-((5-(4-(tert-butyl)benzamido)-2-carbamoylphenyl)amino)-N-phenylpiperidine-1-carboxamide] | 96.2
13 | 9.6 | CC(C)S(=O)(=O)N1CCCC(Nc2cc(NC(=O)c3ccc(C(C)(C)C)cc3)ccc2C(N)=O)C1 (stereo not shown) [Example A-18, 4-(tert-butyl)-N-(4-carbamoyl-3-((1-(isopropylsulfonyl)piperidin-3-yl)amino)phenyl)benzamide] | 90.3
14 | 3.42 | CCN1CCCC(Nc2cc(NC(=O)c3ccc(C(C)(C)C)cc3)ccc2C(=O)OC)C1 [Example D-1, methyl 4-(4-(tert-butyl)benzamido)-2-((1-ethylpiperidin-3-yl)amino)benzoate] | 100
15 | 4.48 | CC(C)(C)c1ccc(C(=O)Nc2ccc(C(N)=O)c(NC3CCCN(C(=O)c4ccccc4)C3)c2)cc1 (stereo not shown) [Example C-6, N-(3-((1-benzoylpiperidin-3-yl)amino)-4-carbamoylphenyl)-4-(tert-butyl)benzamide] | 97.1
16 | 3.26 | CCCCCCCCNC(=O)N1CCCC(Nc2cc(NC(=O)c3ccc(C(C)(C)C)cc3)ccc2C(N)=O)C1 (stereo not shown) [Example B-39, 3-((5-(4-(tert-butyl)benzamido)-2-carbamoylphenyl)amino)-N-octylpiperidine-1-carboxamide] | 100
17 | 4.1 | CC(C)(C)c1ccc(C(=O)Nc2ccc(C(N)=O)c(NC3CCCN(S(=O)(=O)Cc4ccccc4)C3)c2)cc1 (stereo not shown) [Example A-15, N-(3-((1-(benzylsulfonyl)piperidin-3-yl)amino)-4-carbamoylphenyl)-4-(tert-butyl)benzamide] | 95.9
18 | 2.2 | CCCCN1CCCC(Nc2cc(NC(=O)c3ccc(C(C)(C)C)cc3)ccc2C(=O)OC)C1 [Example D-4, methyl 4-(4-(tert-butyl)benzamido)-2-((1-butylpiperidin-3-yl)amino)benzoate] | 97.8
19 | 4.3 | CN1CCCC(Nc2cc(NC(=O)c3ccc(C(C)(C)C)cc3)ccc2C(N)=O)C1 [Example D-9, 4-(tert-butyl)-N-(4-carbamoyl-3-((1-methylpiperidin-3-yl)amino)phenyl)benzamide] | 100
20 | 7.81 | CC(C)(C)c1ccc(C(=O)Nc2ccc(C(N)=O)c(NC3CCCN(C(=O)Nc4ccc(C(F)(F)F)cc4)C3)c2)cc1 (stereo not shown) [Example B-36, 3-((5-(4-(tert-butyl)benzamido)-2-carbamoylphenyl)amino)-N-(4-(trifluoromethyl)phenyl)piperidine-1-carboxamide] | 97.2
21 | 4.5 | CCCCN1CCCC(Nc2cc(NC(=O)c3ccc(C(C)(C)C)cc3)ccc2C(N)=O)C1 [Example D-6, 4-(tert-butyl)-N-(3-((1-butylpiperidin-3-yl)amino)-4-carbamoylphenyl)benzamide] | 95.5
22 | 2 | CC(C)(C)c1ccc(C(=O)Nc2ccc(C(N)=O)c(NC3CCCNC3)c2)cc1 [Example D-10, 4-(tert-butyl)-N-(4-carbamoyl-3-(piperidin-3-ylamino)phenyl)benzamide trifluoroacetate] | 70
